Consider one molecule from patent publication EP2636410A1, “Utilization of the dichlorido complexes of platinum with 7-azaindole halogeno-derivatives for the preparation of drugs for the treatment of tumour diseases” (Univerzita Palackeho, priority 2012, dated 2013).

What all share (assay): In vitro cytotoxicity, MTT micro-titration analysis
Common to all, as to type: cell-based

Assay [1] concerns human cancer cell line of lung carcinoma A549. Conditions: A549 cells, 24 h incubation with complex, read-out: inhibition concentrations IC50. The procedure:
(§1) The cytotoxic activities of the prepared complexes, as it is given below in the examples 1-6, were tested by micro-titration analysis using 3-(4,5-dimethylthiazol-2-yl)-2,5-diphenyltetrazolium bromide (MTT). The test detected living cells, whose number corresponds to the reduced MTT quantity. In vitro cytotoxicity was tested against the following human cancer cells: lung carcinoma A549, malignant melanoma G361, cervix carcinoma HeLa, ovarian carcinoma A2780, cisplatin-resistant ovarian carcinoma A2780R and prostate carcinoma LNCaP. The cells were maintained in plastic tissue culture flasks in the DMEM medium (5 g/L of glucose, 2 mM of glutamine, 100 U/mL of penicillin, 100 µg/mL of streptomycine, 10% fetal calf serum and sodium hydrogen carbonate) for cell cultures. The cell suspensions (ca 1.25 x 10^5 cells mL^-1) were pipetted (80 µL) into 96-well microplates. They were incubated at 37 °C in the CO2 atmosphere for 24 h. The tested dichlorido complexes of platinum were dissolved in N,N'-dimethylformamide (DMF) and diluted to the 50.0 mM concentration - these solutions represent the stock solutions. […]
The in vitro antitumor activity of the studied complexes cis-[PtCl2(L2)2] […] (3) against human cancer cell line of lung carcinoma A549 was determined by the above-described micro-titration analysis using MTT (L2= 3-chloro-7-azaindole, L3 = 3-iodo-7-azaindole, L6 = 5-bromo-7-azaindole).

Assay [2] deals with human cancer cell line of cervix carcinoma HeLa. As to conditions: HeLa cells, 24 h incubation with complex, read-out: inhibition concentrations IC50. The procedure: as §1
The in vitro antitumor activity of the studied complexes cis-[PtCl2(L2)2] […] (3) against human cancer cell line of cervix carcinoma HeLa was determined by the above-described micro-titration analysis using MTT (L2 = 3-chloro-7-azaindole, L3 = 3-iodo-7-azaindole, L6 = 5-bromo-7-azaindole).

Assay [3] has as its system human cancer cell line of prostate carcinoma LNCaP. Conditions: LNCaP cells, 24 h incubation with complex, read-out: inhibition concentrations IC50. The procedure:
as §1
The in vitro antitumor activity of the studied complexes cis-[PtCl2(L2)2] […] (3) against human cancer cell line of prostate carcinoma LNCaP was determined by the above-described micro-titration analysis using MTT (L2 = 3-chloro-7-azaindole, L3 = 3-iodo-7-azaindole, L6 = 5-bromo-7-azaindole).

In assay [4] the test system is human cancer cell line of cisplatin-resistant ovarian carcinoma A2780R. As to conditions: A2780R cells, 24 h incubation with complex, read-out: inhibition concentrations IC50. The procedure:
as §1, with “h.” for “h. The tested dichlorido complexes of platinum were dissolved in N,N'-dimethylformamide (DMF) and diluted to the 50.0 mM concentration - these solutions represent the stock solutions.”
The in vitro antitumor activity of the studied complexes cis-[PtCl2(L2)2] […] (3) against human cancer cell line of cisplatin-resistant ovarian carcinoma A2780R was determined by the above-described micro-titration analysis using MTT (L2 = 3-chloro-7-azaindole, L3 = 3-iodo-7-azaindole, L6 = 5-bromo-7-azaindole).

Assay [5] concerns human cancer cell line of malignant melanoma G361. As to conditions: G361 cells, 24 h incubation with complex, read-out: inhibition concentrations IC50. The procedure: as §1
The in vitro antitumor activity of the studied complexes cis-[PtCl2(L2)2] […] (3) against human cancer cell line of malignant melanoma G361 was determined by the above-described micro-titration analysis using MTT (L2 = 3-chloro-7-azaindole, L3 = 3-iodo-7-azaindole, L6 = 5-bromo-7-azaindole).

Assay [6] concerns human cancer cell line of ovarian carcinoma A2780. As to conditions: A2780 cells, 24 h incubation with complex, read-out: inhibition concentrations IC50. The procedure: as §1
The in vitro antitumor activity of the studied complexes cis-[PtCl2(L2)2] […] (3) against human cancer cell line of ovarian carcinoma A2780 was determined by the above-described micro-titration analysis using MTT (L2 = 3-chloro-7-azaindole, L3 = 3-iodo-7-azaindole, L6 = 5-bromo-7-azaindole).

Regarding `N.N.[Cl][Pt][Cl]` [cisplatin, Cis-diammine-dichloridoplatinum(II) complex, reference compound], the IC50 in assay [1] turned out to be 25.8 ± 7.1 µM; in assay [2], 10 ± 2.6 µM; in assay [3], 3.8 ± 1.5 µM; in assay [4], 27 ± 4.6 µM; in assay [5] it was 3.4 ± 0.1 µM; in assay [6], 12 ± 0.8 µM.
